Test results published in ChEMBL document CHEMBL4270577, “Synthesis, anticancer activity and molecular modeling studies of 1,2,4-triazole derivatives as EGFR inhibitors” (Eur J Med Chem, 2018).

Experiments:
[1] = test system: 786-0; assay: Growth inhibition of human 786-0 cells at 10 uM incubated for 48 hrs by sulforhodamine B assay relative to control; assay type: functional; details: 786-0, 48 h, read-out: GI
[2] = test system: OVCAR-4; assay: Growth inhibition of human OVCAR4 cells at 10 uM incubated for 48 hrs by sulforhodamine B assay relative to control; assay type: functional; details: OVCAR-4, 48 h, read-out: GI
[3] = test system: DU-145; assay: Growth inhibition of human DU145 cells at 10 uM incubated for 48 hrs by sulforhodamine B assay relative to control; assay type: functional; details: DU-145, 48 h, read-out: GI
[4] = test system: A549; assay: Growth inhibition of human A549/ATCC cells at 10 uM incubated for 48 hrs by sulforhodamine B assay relative to control; assay type: functional; details: A549, 48 h, read-out: GI
[5] = target: Epidermal growth factor receptor (Homo sapiens, UniProt P00533); assay: Inhibition of His6-tagged recombinant EGFR cytoplasmic domain (645 to 1186 residues) (unknown origin) expressed in baculovirus infected Sf9 insect cells preincubated for 10 mins followed by ATP-MgCl2 addition and measured after 1 hr by DELFIA/time-resolved fluorometric analysis
[6] = test system: NCI-H460; assay: Growth inhibition of human NCI-H460 cells at 10 uM incubated for 48 hrs by sulforhodamine B assay relative to control; assay type: functional; details: NCI-H460, 48 h, read-out: GI
[7] = test system: NCI-H322M; assay: Growth inhibition of human NCI-H322M cells at 10 uM incubated for 48 hrs by sulforhodamine B assay relative to control; assay type: functional; details: read-out: GI
[8] = test system: HOP-62; assay: Growth inhibition of human HOP62 cells at 10 uM incubated for 48 hrs by sulforhodamine B assay relative to control; assay type: functional; details: HOP-62, 48 h, read-out: GI
[9] = test system: HOP-92; assay: Growth inhibition of human HOP92 cells at 10 uM incubated for 48 hrs by sulforhodamine B assay relative to control; assay type: functional; details: HOP-92, 48 h, read-out: GI
[10] = test system: SF-268; assay: Growth inhibition of human SF268 cells at 10 uM incubated for 48 hrs by sulforhodamine B assay relative to control; assay type: functional; details: SF-268, 48 h, read-out: GI
[11] = test system: SN12C; assay: Growth inhibition of human SN12C cells at 10 uM incubated for 48 hrs by sulforhodamine B assay relative to control; assay type: functional; details: read-out: GI
[12] = test system: K562; assay: Growth inhibition of human K562 cells at 10 uM incubated for 48 hrs by sulforhodamine B assay relative to control; assay type: functional; details: K562, 48 h, read-out: GI
[13] = test system: OVCAR-3; assay: Growth inhibition of human OVCAR3 cells at 10 uM incubated for 48 hrs by sulforhodamine B assay relative to control; assay type: functional; details: OVCAR-3, 48 h, read-out: GI
[14] = test system: U-251; assay: Growth inhibition of human U251 cells at 10 uM incubated for 48 hrs by sulforhodamine B assay relative to control; assay type: functional; details: U-251, 48 h, read-out: GI
[15] = test system: HCC 2998; assay: Growth inhibition of human HCC2998 cells at 10 uM incubated for 48 hrs by sulforhodamine B assay relative to control; assay type: functional; details: HCC 2998, 48 h, read-out: GI
[16] = test system: NCI-H522; assay: Growth inhibition of human NCI-H522 cells at 10 uM incubated for 48 hrs by sulforhodamine B assay relative to control; assay type: functional; details: NCI-H522, 48 h, read-out: GI
[17] = test system: SK-MEL-5; assay: Growth inhibition of human SK-MEL-5 cells at 10 uM incubated for 48 hrs by sulforhodamine B assay relative to control; assay type: functional; details: SK-MEL-5, 48 h, read-out: GI
[18] = test system: M14; assay: Growth inhibition of human M14 cells at 10 uM incubated for 48 hrs by sulforhodamine B assay relative to control; assay type: functional; details: M14, 48 h, read-out: GI
[19] = test system: RXF 393; assay: Growth inhibition of human RXF393 cells at 10 uM incubated for 48 hrs by sulforhodamine B assay relative to control; assay type: functional; details: RXF 393, 48 h, read-out: GI
[20] = test system: HT-29; assay: Growth inhibition of human HT-29 cells at 10 uM incubated for 48 hrs by sulforhodamine B assay relative to control; assay type: functional; details: HT-29, 48 h, read-out: GI
[21] = test system: HCT-15; assay: Growth inhibition of human HCT15 cells at 10 uM incubated for 48 hrs by sulforhodamine B assay relative to control; assay type: functional; details: HCT-15, 48 h, read-out: GI
[22] = test system: SNB-75; assay: Growth inhibition of human SNB75 cells at 10 uM incubated for 48 hrs by sulforhodamine B assay relative to control; assay type: functional; details: SNB-75, 48 h, read-out: GI
[23] = test system: COLO 205; assay: Growth inhibition of human COLO205 cells at 10 uM incubated for 48 hrs by sulforhodamine B assay relative to control; assay type: functional; details: COLO 205, 48 h, read-out: GI
[24] = test system: MCF7; assay: Growth inhibition of human MCF7 cells at 10 uM incubated for 48 hrs by sulforhodamine B assay relative to control; assay type: functional; details: MCF7, 48 h, read-out: GI
[25] = test system: RPMI-8226; assay: Growth inhibition of human RPMI8226 cells at 10 uM incubated for 48 hrs by sulforhodamine B assay relative to control; assay type: functional; details: RPMI-8226, 48 h, read-out: GI
[26] = test system: CCRF-CEM; assay: Growth inhibition of human CCRF-CEM cells at 10 uM incubated for 48 hrs by sulforhodamine B assay relative to control; assay type: functional; details: read-out: GI
[27] = test system: SW-620; assay: Growth inhibition of human SW620 cells at 10 uM incubated for 48 hrs by sulforhodamine B assay relative to control; assay type: functional; details: SW-620, 48 h, read-out: GI
[28] = test system: ACHN; assay: Growth inhibition of human ACHN cells at 10 uM incubated for 48 hrs by sulforhodamine B assay relative to control; assay type: functional; details: read-out: GI
[29] = test system: MDA-MB-231; assay: Growth inhibition of human MDA-MB-231/ATCC cells at 10 uM incubated for 48 hrs by sulforhodamine B assay relative to control; assay type: functional; details: MDA-MB-231, 48 h, read-out: GI
[30] = test system: Malme-3M; assay: Growth inhibition of human MALME-3M cells at 10 uM incubated for 48 hrs by sulforhodamine B assay relative to control; assay type: functional; details: read-out: GI
[31] = test system: SNB-19; assay: Growth inhibition of human SNB19 cells at 10 uM incubated for 48 hrs by sulforhodamine B assay relative to control; assay type: functional; details: SNB-19, 48 h, read-out: GI
[32] = test system: SK-OV-3; assay: Growth inhibition of human SKOV3 cells at 10 uM incubated for 48 hrs by sulforhodamine B assay relative to control; assay type: functional; details: SK-OV-3, 48 h, read-out: GI
[33] = test system: Hs-578T; assay: Growth inhibition of human Hs 578T cells at 10 uM incubated for 48 hrs by sulforhodamine B assay relative to control; assay type: functional; details: read-out: GI
[34] = test system: NCI-H23; assay: Growth inhibition of human NCI-H23 cells at 10 uM incubated for 48 hrs by sulforhodamine B assay relative to control; assay type: functional; details: NCI-H23, 48 h, read-out: GI
[35] = test system: SK-MEL-2; assay: Growth inhibition of human SK-MEL-2 cells at 10 uM incubated for 48 hrs by sulforhodamine B assay relative to control; assay type: functional; details: SK-MEL-2, 48 h, read-out: GI

Chain of Epidermal growth factor receptor (P00533 whole entry, the tested form may be a part): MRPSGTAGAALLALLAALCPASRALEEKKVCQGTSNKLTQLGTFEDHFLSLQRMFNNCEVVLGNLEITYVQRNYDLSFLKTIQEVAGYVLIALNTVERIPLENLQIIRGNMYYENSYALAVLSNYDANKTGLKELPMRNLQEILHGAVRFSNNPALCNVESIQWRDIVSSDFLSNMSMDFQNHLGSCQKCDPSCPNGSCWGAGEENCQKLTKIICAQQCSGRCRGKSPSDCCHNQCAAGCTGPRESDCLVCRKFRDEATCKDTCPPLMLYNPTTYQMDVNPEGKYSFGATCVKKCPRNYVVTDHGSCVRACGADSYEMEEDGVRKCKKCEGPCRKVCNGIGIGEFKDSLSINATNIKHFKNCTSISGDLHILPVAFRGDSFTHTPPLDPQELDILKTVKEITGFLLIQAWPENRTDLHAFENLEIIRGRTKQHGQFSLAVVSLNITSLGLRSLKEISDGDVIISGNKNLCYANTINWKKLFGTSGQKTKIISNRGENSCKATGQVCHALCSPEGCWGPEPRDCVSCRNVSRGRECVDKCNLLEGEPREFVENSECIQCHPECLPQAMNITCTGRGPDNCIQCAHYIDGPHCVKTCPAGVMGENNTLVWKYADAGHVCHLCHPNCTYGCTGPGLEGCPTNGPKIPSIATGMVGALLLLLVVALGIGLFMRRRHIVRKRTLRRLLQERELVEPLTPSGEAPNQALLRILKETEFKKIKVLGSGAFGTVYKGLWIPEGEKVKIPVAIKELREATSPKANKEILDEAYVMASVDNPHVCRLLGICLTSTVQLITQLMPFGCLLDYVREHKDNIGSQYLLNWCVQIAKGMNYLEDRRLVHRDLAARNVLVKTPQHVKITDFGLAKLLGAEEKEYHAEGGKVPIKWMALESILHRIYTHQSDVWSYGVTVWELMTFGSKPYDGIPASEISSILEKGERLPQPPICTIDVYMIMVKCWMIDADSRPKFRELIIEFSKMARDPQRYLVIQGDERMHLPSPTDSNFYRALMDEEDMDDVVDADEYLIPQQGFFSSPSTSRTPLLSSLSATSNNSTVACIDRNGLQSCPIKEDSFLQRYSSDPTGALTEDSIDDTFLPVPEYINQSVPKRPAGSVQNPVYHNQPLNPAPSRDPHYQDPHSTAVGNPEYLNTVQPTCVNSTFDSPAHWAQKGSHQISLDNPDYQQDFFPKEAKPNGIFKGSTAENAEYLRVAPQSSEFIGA

SMILES	inhibition of growth at 10 µM [2] [%]	inhibition of growth at 10 µM [3] [%]	inhibition of growth at 10 µM [4] [%]	IC50 [5] [µM]	inhibition of growth at 10 µM [6] [%]	inhibition of growth at 10 µM [7] [%]	inhibition of growth at 10 µM [8] [%]	inhibition of growth at 10 µM [9] [%]	inhibition of growth at 10 µM [10] [%]	inhibition of growth at 10 µM [11] [%]	inhibition of growth at 10 µM [12] [%]	inhibition of growth at 10 µM [14] [%]	inhibition of growth at 10 µM [16] [%]	inhibition of growth at 10 µM [17] [%]	inhibition of growth at 10 µM [18] [%]	inhibition of growth at 10 µM [19] [%]	inhibition of growth at 10 µM [20] [%]	inhibition of growth at 10 µM [21] [%]	inhibition of growth at 10 µM [22] [%]	inhibition of growth at 10 µM [23] [%]	other results
Clc1ccc(-c2cn3nc(-c4ccccc4)nc3s2)cc1	60	14	36	7.2	37	20	40	53	20	22	24	25	29	21	15	39	26	9	36	18	inhibition of growth at 10 µM [1]: 53%; inhibition of growth at 10 µM [13]: 24%; inhibition of growth at 10 µM [15]: 10%; inhibition of growth at 10 µM [24]: 35%; inhibition of growth at 10 µM [25]: 10%; inhibition of growth at 10 µM [26]: 6%; inhibition of growth at 10 µM [27]: 13%; inhibition of growth at 10 µM [28]: 49%; inhibition of growth at 10 µM [29]: 57%; inhibition of growth at 10 µM [30]: 10%; inhibition of growth at 10 µM [31]: 57%; inhibition of growth at 10 µM [32]: 64%; inhibition of growth at 10 µM [33]: 40%; inhibition of growth at 10 µM [34]: 33%
COc1cc(-c2nc3sc(-c4ccccc4)cn3n2)cc(OC)c1OC	17	9	23	2.8	18	7	15	50	9	19	39	32	30	41	25	17	18	42	24	15	inhibition of growth at 10 µM [1]: 14%; inhibition of growth at 10 µM [35]: 20%; inhibition of growth at 10 µM [24]: 23%; inhibition of growth at 10 µM [25]: 42%; inhibition of growth at 10 µM [26]: 49%; inhibition of growth at 10 µM [27]: 6%; inhibition of growth at 10 µM [28]: 15%; inhibition of growth at 10 µM [29]: 41%; inhibition of growth at 10 µM [31]: 10%; inhibition of growth at 10 µM [33]: 26%; inhibition of growth at 10 µM [34]: 17%
COc1ccc(-c2nc3sc(-c4ccc(Cl)cc4)cn3n2)cc1	-63.3	19.3	-30	1.5	-39	82.2	60.4	79.5	34.9	94.7	38.5	-67.9	39	27.4	9	41	82.7	28	-1.66	47.5	inhibition of growth at 10 µM [1]: -75.8%; inhibition of growth at 10 µM [13]: 75.3%; inhibition of growth at 10 µM [15]: 21.4%; inhibition of growth at 10 µM [24]: 51.1%; inhibition of growth at 10 µM [25]: 55.1%; inhibition of growth at 10 µM [26]: 30.5%; inhibition of growth at 10 µM [27]: 40.4%; inhibition of growth at 10 µM [28]: -74%; inhibition of growth at 10 µM [29]: 86.7%; inhibition of growth at 10 µM [30]: 49.2%; inhibition of growth at 10 µM [31]: -1.95%; inhibition of growth at 10 µM [32]: 50.5%; inhibition of growth at 10 µM [33]: 73%; inhibition of growth at 10 µM [34]: 41.5%
COc1ccc(-c2nc3sc(-c4ccccc4)cn3n2)cc1	37	16	49	5.6	65	14	49	32	28	37	76	21	70	65	71	24	70	69	34	63	inhibition of growth at 10 µM [1]: 11%; inhibition of growth at 10 µM [13]: 41%; inhibition of growth at 10 µM [35]: 40%; inhibition of growth at 10 µM [15]: 22%; inhibition of growth at 10 µM [24]: 74%; inhibition of growth at 10 µM [25]: 21%; inhibition of growth at 10 µM [26]: 35%; inhibition of growth at 10 µM [27]: 64%; inhibition of growth at 10 µM [28]: 32%; inhibition of growth at 10 µM [29]: 53%; inhibition of growth at 10 µM [30]: 32%; inhibition of growth at 10 µM [31]: 34%; inhibition of growth at 10 µM [32]: 32%; inhibition of growth at 10 µM [33]: 40%; inhibition of growth at 10 µM [34]: 28%
c1ccc(-c2nc3sc(-c4ccccc4)cn3n2)cc1	23	15	10	9.8	6	11	33	25	7	20	11	6	19	20	13	9	9	8	15	5	inhibition of growth at 10 µM [13]: 16%; inhibition of growth at 10 µM [35]: 5%; inhibition of growth at 10 µM [24]: 61%; inhibition of growth at 10 µM [25]: 14%; inhibition of growth at 10 µM [26]: 13%; inhibition of growth at 10 µM [27]: 5%; inhibition of growth at 10 µM [28]: 14%; inhibition of growth at 10 µM [29]: 35%; inhibition of growth at 10 µM [31]: 11%; inhibition of growth at 10 µM [32]: 5%; inhibition of growth at 10 µM [33]: 9%; inhibition of growth at 10 µM [34]: 16%
